# Measured values as given in patent publication US5336485A, “Method for protecting animals against tacrine induced cytotoxic injury using sterol compounds” (priority 1993, dated 1994).
# Counter-ions that a name gives are not always drawn.
# Tests used:
# male Sprague-Dawley rats = assay: CCl4 induced lethality in rats; type: in vivo, rat; settings: for Survival after CCl4 treatment: 100 mg/kg ip 24 h prior, […] CCl4 oral
# Procedure: The in vivo effect of alpha-TS was tested by administering a lethal oral dose of carbon tetrachloride (CC14) to male Sprague-Dawley rats.
# In the experiment described in Table 3, a single dose of alpha-TS dissolved in peanut oil:ethanol (3:2) was given to male Sprague-Dawley rats. The dose was given 24 hours prior to an orally administered CCl4 challenge dissolved in peanut oil. Two to nine animals were tested per treatment. The control group comprised rats pretreated with the vehicle only. Survival was monitored for at least 7 days after the toxic insult.
# In vivo experiments were performed to determine if the time the ionizable tocopherol analog (alpha-TS) is administered affects the cytoprotective functions. Male Sprague-Dawley rats were given a 100 mg/kg intraperitoneal dose of a tocopherol or succinate analog and were given a lethal dose of CCl4 (2.9g/kg by oral gavage). Table 7 contrasts the times of administration of the tocopherol or succinate analog and the times of administration of the lethal dose of CCl4 with the survival of the rats in the study (3to 6 rats per protective treatment).
# Several tocopherol and succinate analogs were tested for CCl4 induced lethality. A single dose of the tocopherol or succinate analog was administered twenty four hours prior to orally administering 2.9 g CCl4 /kg body weight. Three to six animals were analyzed per treatment. The rats were monitored for seven days. […]
# liver = assay: CCl4 induced hepatotoxicity in rats (serum AST/ALT); type: in vivo, rat
# Procedure: In vivo experiments were performed to determine if alpha-TS administration protects the liver from chemical toxicity. The liver is the target organ for CCl4. CCl4 is a hepatotoxic agent that induces centrilobular liver necrosis through its metabolism to free radicals. Male Sprague-Dawley rats were given an intraperitoneal dose (100 mg/kg) of a tocopherol analog 24 hours prior to a CCl4 challenge (2.9g/kg given by oral garage). Forty eight hours after the challenge, the rats were sacrificed and the levels of aspartate aminotransferase (AST) and alanine aminotransferase (ALT) were measured.
# As discussed above, SGOT levels provide a clinical assessment of hepatotoxicity (liver damage).
# Succinate analogs were administered to male Sprague-Dawley rats 20 hours prior to a 1 g CCl4 /kg body weight oral challenge and the AST and ALT serum enzyme levels were measured 48 hours after the challenge.
# Similar to the experiments were described above, the ionizable congeners were administered to Sprague-Dawley rats by i.p. injection of a 100 mg ionizable congener/kg body weight dose 20 hours prior to oral administration of a 1 g/kg dose of CCl4, and the AST and ALT levels were measured 48 hours after the CCl4 challenge.
# rat hepatocytes [1] = assay: EMS-induced cytotoxicity (LDH leakage/cell death) in rat hepatocyte suspensions; settings: for inhibition at 25 µM: Rattus norvegicus, Hepatocyte; for Cell Death: 5 Hrs, alpha-TS 25, methyl ester 50, cholesteryl succinate 100, monomethyl/dimethyl succinate 250 μM; for Protection From Toxic Injury: EMS 3 h
# Procedure: To determine if alpha-TS is a cytoprotective agent under physiological conditions, liver cells were incubated with Waymouth's medium containing approximately 1 mM extracellular Ca^2+ in the presence and absence of alpha-TS.
# (§1) At each time-point, rapid separation of viable from non-viable hepatocytes and medium was accomplished by the dibutyl phthalate centrifugation method. Cell viability was monitored hourly by measuring LDH leakage with a Cobas Analyzer and intracellular [K^+ ]with a flame photometer. LDH was routinely measured in the medium while intracellular K^+ was measured in the 10% perchloric acid lysate of viable cells. Lipid peroxidation was determined by measuring TBA reactants in the medium. […] The samples were diluted with 0.3 ml 1% ascorbate in 0.1 M SDS, 0.4 ml ethanol, sonicated and extracted once with 0.8 ml hexane. Next, the hexane extract was evaporated to dryness with N2, the residue dissolved in 2.5% ascorbate in methanol (1 ml) and analyzed (100 μl) by high-performance liquid chromatograph (HPLC). […] The mobile phase, 95% MeOH was run isocratically and the HPLC retention times for delta and alpha-tocopherol were approximately eleven and sixteen minutes, respectively. […] Following the addition of 0.2 ml 4 M HC1, the neutralized KOH-MeOH extracted with 0.8 ml hexane. […] A standard curve for each tocopherol congener was run with every assay. […] Only viable cells were monitored in the laboratory procedures.
# To determine the relative cytoprotective potency of various tocopherol derivatives, the effect of varying doses of a tocopherol analog on the protection against EMS-induced toxicity was examined in vitro on rat hepatocyte suspensions. Specifically, the following ionizable tocopherol congeners were tested: alpha-TS, alpha tocopheryl glutarate (alpha-TG), and alpha tocopheryl phosphate (alpha-TP). […] 0.1 nmoles is the lower detection limit.
# In vitro experiments were conducted with a variety of different tocopherol and succinate analogs to determine which were protective against EMS induced toxicity. After five hours of incubation with 50 mM EMS and 25μM of a tocopherol or succinate analog, cytoprotection was determined by comparing the percentage of LDH leakage from control hepatocytes (vehicle only, assumed 100% protection) with the EMS only treated cells (assumed 0% protection).
# An in vitro experiment with rat hepatocyte suspensions was performed to determine the effect of esterase inhibitors on alpha-TS.
# (§2) Rat hepatocyte suspensions were subjected to 50 mM EMS and the percentage of cell death, the percentage of intracellular K^+ (a metabolic parameter as discussed above), the depletion of ATP and the effect on lipid peroxidation were monitored.
# rat hepatocytes [2] = assay: EMS-induced lipid peroxidation in rat hepatocyte suspensions; type: cell-based; settings: 50 mM EMS; for Lipid Peroxidation: 5 Hrs, concentrations as cell death (Table 15)
# Procedure: as §1, §2
# [3] = Tissue distribution of alpha-tocopherol and alpha-tocopherol ester in rats; type: in vivo, rat; settings: 24 h; for alpha-TS, Blood / alpha-TS, Heart / alpha-TS, Kidney / alpha-TS, Liver / alpha-TS, Lung / alpha-TS, Plasma: K+ salt in saline, 1 dose 100 mg/kg
# Procedure: 100 mg/kg body weight of a tocopherol analog was administered to Sprague-Dawley rats using a peanut oil:ethanol vehicle (3:2). Twenty four hours later the rats were sacrificed and the accumulation of the tocopherol analog in the liver was determined.
# A similar in vivo experiment to that discussed in conjunction with Table 5 was performed to determine if other tissues accumulate alpha-TS. Male Sprague-Dawley rats were given a 100 mg/kg dose of alpha-TS using a variety of chemical forms and vehicles. A variety of techniques were used to administer the alpha-TS. Twenty four hours later the rats were sacrificed and the tissues were tested for alpha-TS accumulation.
# rat hepatocytes [4] = assay: Cellular alpha-tocopherol and tocopherol ester content of rat hepatocytes; settings: for Hepatocyte Concentration Alpha-T: EMS 3 h
# Procedure: as §1
# The hepatocytes were subsequently exposed to 50mM EMS for three hours.
# rat hepatocytes [5] = assay: ATP content of rat hepatocyte suspensions; type: cell-based; settings: 25 μM
# Source text: It is well known that the succinate molecule is utilized by the cell to produce ATP energy. In the tricarboxylic acid cycle, succinate is oxidized by succinate dehydrogenase to produce ATP. Oxidation occurs in the mitochondria and the mitochondria can utilize both succinate formed in the mitochondria or succinate transported to the mitochondria. Increasing ATP production may enhance cellular repair processes as well as normal metabolic processes. For example, the cell's ability to remove free intracellular Ca^2+ during a toxic insult is related to ATP production. Succinate administration stimulates gluconeogenesis to form glucose 6-phosphate which is used for producing energy anaerobically (ATP formation through glycolysis) and for producing reducing equivalents (NADPH formation through the hexose monophosphate shunt needed for lipid and nucleotide biosynthesis and other biosynthetic reductions and enzymatic reactions, e.g., glutathione reductase). An in vitro experiment was conducted to determine the relationship between the release of succinate from alpha-TS and the cellular ATP level. The experiment was performed by incubating a tocopherol analog in a rat hepatocyte suspension and measuring the ATP level at the beginning and end of the test.
# as §2
# [6] = 100 mg/kg, single dose 24 h prior, CCl4 […]
# [7] = 100 mg/kg ip, 48 h after 1 g/kg CCl4 (Table 31)
# [8] = 1 g/kg, single dose 24 h prior, CCl4 […]
molecule,measurement,setting,value
"CC(C)CCC[C@@H](C)[C@H]1CC[C@H]2[C@@H]3CC=C4C[C@@H](O)CC[C@]4(C)[C@H]3CC[C@]12C [Cholesterol, reference compound]",Survival after CCl4 treatment,male Sprague-Dawley rats,No
same,Days Survived After CCl4 Treatment,male Sprague-Dawley rats; [6],2 days
same,ALT,liver; [7],1.16 ± 0.41 10^3 units/L
same,AST,liver; [7],3.03 ± 0.84 10^3 units/L
same,SGOT Levels,"liver; 100 mg/kg ip, 48 h after 1.0 g/kg CCl4",4.08 ± 2.45 10^3 units/L
same,protection against CCl4 hepatotoxicity (in words),"liver; rats, serum enzyme levels",provided no protection
same,inhibition at 25 µM,"rat hepatocytes [1]; 5 h, read-out: Percent Cytoprotection, 25 μM, 50 mM EMS, 5 h",30 ± 16%
"COC(=O)CCC(=O)OC [Dimethyl Succinate, reference compound]",Days Survived after CCl4,"male Sprague-Dawley rats; 1 g/kg, 24 and 1 hour prior",2 days
same,Days Survived After CCl4 Treatment,male Sprague-Dawley rats; [8],2 days
same,"cytoprotection (Table 7, in words)","male Sprague-Dawley rats; rat, in vivo",not cytoprotective
same,Lipid Peroxidation,rat hepatocytes [2],12.6 ± 0.2 nmolMDA/10^6 cells
same,Cell Death,rat hepatocytes [1]; 50 mM EMS,60 ± 1%
"Cc1c(C)c2c(c(C)c1OC(=O)CCC(=O)O)CC[C@@](C)(CCC[C@H](C)CCC[C@H](C)CCCC(C)C)O2 [K + salt of Alpha-TS, Alpha-Tocopherol Succinate, K^+ Salt]",Days Survived After CCl4 Treatment,male Sprague-Dawley rats; [6],> 7 days
same,"alpha-TS, Blood",[3]; (c) ip,19 nmoles/gm of Tissue
same,"alpha-TS, Heart",[3]; (c) ip,18 nmoles/gm of Tissue
same,"alpha-TS, Kidney",[3]; (c) ip,15 nmoles/gm of Tissue
same,"alpha-TS, Liver",[3]; (c) ip,518 nmoles/gm of Tissue
same,"alpha-TS, Lung",[3]; (c) ip,60 nmoles/gm of Tissue
same,"alpha-TS, Plasma",[3]; (c) ip,24 nmoles/gm of Tissue
same,"alpha-TS, Blood",[3]; (d) iv,18 nmoles/gm of Tissue
same,"alpha-TS, Heart",[3]; (d) iv,24 nmoles/gm of Tissue
same,"alpha-TS, Kidney",[3]; (d) iv,27 nmoles/gm of Tissue
same,"alpha-TS, Liver",[3]; (d) iv,445 nmoles/gm of Tissue
same,"alpha-TS, Lung",[3]; (d) iv,385 nmoles/gm of Tissue
same,"alpha-TS, Plasma",[3]; (d) iv,30 nmoles/gm of Tissue
same,Percent Cytoprotection,"rat hepatocytes [1]; 25 μM, 50 mM EMS, 5 h, K^+ Salt, 300 min, 25 µM",97 ± 3%
"COC(=O)CCC(=O)O [Monomethyl Succinate, reference compound]",Days Survived after CCl4,"male Sprague-Dawley rats; 1 g/kg, 24 and 1 hour prior",2 days
same,Days Survived After CCl4 Treatment,male Sprague-Dawley rats; [8],2 days
same,Lipid Peroxidation,rat hepatocytes [2],12.8 ± 1.0 nmolMDA/10^6 cells
same,Cell Death,rat hepatocytes [1]; 50 mM EMS,61 ± 5%
"Cc1c(C)c2c(c(C)c1O)CC[C@@](C)(CCC[C@H](C)CCC[C@H](C)CCCC(C)C)O2 [alpha-T, d-alpha-tocopherol, reference compound]",Hepatocyte Concentration Alpha-T,rat hepatocytes [4]; 25 μM,2.1 ± 0.7 nmol/10^6 cells
same,Cellular alpha-T,"rat hepatocytes [4]; 25 μM, Table 2",2.6 nmoles/10^6 cells
same,Hepatocyte Concentration Alpha-T,rat hepatocytes [4]; 50 μM,6.1 ± 0.7 nmol/10^6 cells
same,Hepatocyte Concentration Alpha-T,rat hepatocytes [4]; 250 μM,23.7 ± 2.4 nmol/10^6 cells
same,Survival after CCl4 treatment,male Sprague-Dawley rats,No
same,Protection from CCl4,male Sprague-Dawley rats; 100 mg/kg ip (Table 5),No
same,Days Survived After CCl4 Treatment,"male Sprague-Dawley rats; 100 mg/kg ip, 24 h prior, CCl4 2.2 g/kg",3 days
same,Days Survived After CCl4 Treatment,"male Sprague-Dawley rats; 100 mg/kg ip, 24 h prior, CCl4 3.8 g/kg",2 days
same,Days Survived After CCl4 Treatment,"male Sprague-Dawley rats; 100 mg/kg ip, 24 h prior, CCl4 5.0 g/kg",2 days
same,Days Survived After CCl4 Treatment,"male Sprague-Dawley rats; 100 mg/kg ip, 24 h prior, CCl4 […]",2 days
same,Days Survived After CCl4 Treatment,male Sprague-Dawley rats; [6],3 days
same,Days Survived after CCl4,male Sprague-Dawley rats; CCl4 1.7 g/kg,three
same,Liver Concentration Alpha-T,[3]; 100 mg/kg ip,128 ± 10 nmol/g
same,inhibition at 25 µM,"rat hepatocytes [2]; Rattus norvegicus, Hepatocyte, 25 μM",9%
same,Rate of ATP Depletion,rat hepatocytes [5],1.5 ± 0.2 nmoles/10^6 cell/hr
same,Cellular ATP,rat hepatocytes [5]; 0 Hr,15.2 ± 1.6 nmoles/10^6 cells
same,Cellular ATP,rat hepatocytes [5]; 6 Hr,6.3 ± 0.8 nmoles/10^6 cells
same,Protection From Toxic Injury,rat hepatocytes [1]; 25 μM,No
same,Protection From Toxic Injury,rat hepatocytes [1]; 50 μM,No
same,Protection From Toxic Injury,rat hepatocytes [1]; 250 μM,No
same,inhibition at 25 µM,"rat hepatocytes [1]; 5 h, read-out: Percent Cytoprotection",8 ± 10%
same,inhibition at 25 µM,rat hepatocytes [1]; read-out: % Protection,19%
same,protection of hepatocytes against EMS,rat hepatocytes [1]; up to 250 μM,Protection was not afforded
"d-alpha-tocopheryl polyethylene glycol 1,000 succinate",Days Survived After CCl4 Treatment,"male Sprague-Dawley rats; 200 mg/Kg, iv, 24 h prior",> 7 days
same,Days Survived After CCl4 Treatment,"male Sprague-Dawley rats; 200 mg/kg, oral, 24 h prior",2 days
same,Days Survived After CCl4 Treatment,"male Sprague-Dawley rats; 100 or 200 mg/Kg, single dose 24 h prior",> 7 days
same,Percent Cytoprotection,"rat hepatocytes [1]; 25 μM, 50 mM EMS, 5 h",80 ± 15%
same,protection from lethal effects of EMS,"rat hepatocytes [1]; rat hepatocytes, 25 μM, 50 mM EMS",protection was observed against EMS-induced toxicity
